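48-hour exposure; five concentrations; linearly interpolated endpoints. GI50 is the concentration that inhibits growth by half.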 Active and inactive are the calls of the source. Rule as the data show it: active = GI50 up to about 1.1 µM and inactive = higher.
Key:
Assay in all cases: DTP human tumour cell line panel, 48 h
786-0 = test system: 786-0
A549 = test system: A549
EKVX = test system: EKVX
HCC 2998 = test system: HCC 2998
HCT-15 = test system: HCT-15
HL-60 = test system: HL-60
HT-29 = test system: HT-29
K562 = test system: K562
LOX IMVI = test system: LOX IMVI
M14 = test system: M14
NCI-H23 = test system: NCI-H23
SF-268 = test system: SF-268
SF-539 = test system: SF-539
SW-620 = test system: SW-620
HCT-116 = test system: HCT-116
NCI-H522 = test system: NCI-H522
UACC-257 = test system: UACC-257
HOP-92 = test system: HOP-92

SMILES | GI50 (786-0) | GI50 (A549) | GI50 (EKVX) | GI50 (HCC 2998) | GI50 (HCT-15) | GI50 (HL-60) | GI50 (HT-29) | GI50 (K562) | GI50 (LOX IMVI) | GI50 (M14) | GI50 (NCI-H23) | GI50 (SF-268) | GI50 (SF-539) | GI50 (SW-620) | GI50 (HCT-116) | GI50 (NCI-H522) | GI50 (UACC-257) | GI50 (HOP-92)
O=C1CNC(=O)c2[nH]cnc2N1 | > 100 µM (inactive) | > 100 µM (inactive) | > 100 µM (inactive) | > 100 µM (inactive) | > 100 µM | > 100 µM (inactive) | > 100 µM (inactive) | 82.6 µM (inactive) | > 100 µM (inactive) | > 100 µM (inactive) | > 100 µM (inactive) | > 100 µM (inactive) | > 100 µM (inactive) | > 100 µM (inactive) | – | – | – | –
O=C(CC1(O)C(=O)Nc2c(Cl)ccc(Cl)c21)c1ccc2ccccc2c1 (stereo not drawn) | 6.25 µM (inactive) | 18.3 µM (inactive) | 15.8 µM (inactive) | 13.1 µM (inactive) | 6.19 µM | 1.73 µM (inactive) | 2.43 µM (inactive) | 2.35 µM (inactive) | 11.2 µM (inactive) | 8.85 µM (inactive) | 10.4 µM (inactive) | 14.5 µM (inactive) | 13.5 µM (inactive) | 3.36 µM (inactive) | 11.7 µM (inactive) | 2.88 µM (inactive) | 12.2 µM (inactive) | –
CS(=O)(=O)OCCN1CCN(C(=O)c2cccc3c(Nc4ccc(S(=O)(=O)N=C(N)N)cc4)c4ccccc4nc23)CC1 | > 100 µM (inactive) | > 100 µM (inactive) | – | > 100 µM (inactive) | > 100 µM | > 100 µM (inactive) | > 100 µM (inactive) | > 100 µM (inactive) | – | > 100 µM (inactive) | > 100 µM (inactive) | > 100 µM (inactive) | > 100 µM (inactive) | – | > 100 µM (inactive) | – | > 100 µM (inactive) | > 100 µM (inactive)
CCOC(=O)C(Oc1ccc(OC)c2c1C(=O)CCC2)c1ccccc1 (stereo not drawn) | > 100 µM (inactive) | > 100 µM (inactive) | 50.2 µM (inactive) | > 100 µM (inactive) | > 100 µM | 49 µM (inactive) | 53.1 µM (inactive) | 49.2 µM (inactive) | > 100 µM (inactive) | > 100 µM (inactive) | 25.5 µM (inactive) | > 100 µM (inactive) | > 100 µM (inactive) | > 100 µM (inactive) | 84.7 µM (inactive) | 94 µM (inactive) | > 100 µM (inactive) | –
CN1C(c2ccccc2)CS(=O)(=O)CS1(=O)=O (stereo not drawn) | > 100 µM (inactive) | > 100 µM (inactive) | > 100 µM (inactive) | > 100 µM (inactive) | > 100 µM | – | > 100 µM (inactive) | – | > 100 µM (inactive) | > 100 µM (inactive) | > 100 µM (inactive) | > 100 µM (inactive) | > 100 µM (inactive) | > 100 µM (inactive) | > 100 µM (inactive) | – | > 100 µM (inactive) | –
CCN(CC)CCCNc1nccc2c(C)c3c(cc12)c1cnccc1n3C | 0.0927 µM (active) | 0.0526 µM (active) | 0.294 µM (active) | 0.0401 µM (active) | 0.0468 µM | – | 0.0101 µM (active) | 0.0211 µM (active) | 0.0711 µM (active) | 0.26 µM (active) | 0.179 µM (active) | 0.294 µM (active) | 0.0173 µM (active) | 0.0233 µM (active) | 0.0564 µM (active) | – | – | –
O=C1/C(=C/c2ccc(Br)s2)NC(=S)N1c1ccccc1 | 40.8 µM (inactive) | – | > 100 µM (inactive) | > 100 µM (inactive) | 80.5 µM | > 100 µM (inactive) | > 100 µM (inactive) | 56.8 µM (inactive) | > 100 µM (inactive) | – | > 100 µM (inactive) | > 100 µM (inactive) | – | > 100 µM (inactive) | 44.4 µM (inactive) | 46.7 µM (inactive) | 65.6 µM (inactive) | 25.7 µM (inactive)
COC(=O)C1=C(C(=O)OC)N(C(C)C)[C@H]2C(C(=O)OC)=C(C(=O)OC)N(C(C)C)[C@@H]12 | > 100 µM (inactive) | > 100 µM (inactive) | > 100 µM (inactive) | – | > 100 µM | 61.5 µM (inactive) | > 100 µM (inactive) | > 100 µM (inactive) | > 100 µM (inactive) | > 100 µM (inactive) | > 100 µM (inactive) | > 100 µM (inactive) | > 100 µM (inactive) | > 100 µM (inactive) | > 100 µM (inactive) | > 100 µM (inactive) | > 100 µM (inactive) | > 100 µM (inactive)
N#Cc1c(CC(=O)O)cc(=O)n2c1[nH]c1ccccc12 | > 100 µM (inactive) | > 100 µM (inactive) | > 100 µM (inactive) | > 100 µM (inactive) | > 100 µM | > 100 µM (inactive) | > 100 µM (inactive) | > 100 µM (inactive) | > 100 µM (inactive) | > 100 µM (inactive) | > 100 µM (inactive) | > 100 µM (inactive) | > 100 µM (inactive) | > 100 µM (inactive) | > 100 µM (inactive) | – | > 100 µM (inactive) | –
COC1=CC(=O)c2ccc(C(C)C)cc2C1(C)C1=NC(C)(C)CO1 (stereo not drawn) | > 100 µM (inactive) | > 100 µM (inactive) | > 100 µM (inactive) | – | > 100 µM | 63 µM (inactive) | > 100 µM (inactive) | 76 µM (inactive) | – | > 100 µM (inactive) | > 100 µM (inactive) | > 100 µM (inactive) | > 100 µM (inactive) | > 100 µM (inactive) | > 100 µM (inactive) | 77.4 µM (inactive) | 65.8 µM (inactive) | 86.7 µM (inactive)
COc1ccc(Oc2nc3ccc(C(F)(F)F)cc3nc2-c2ccccc2)cc1 | > 100 µM (inactive) | – | > 100 µM (inactive) | 25.3 µM (inactive) | > 100 µM | 42 µM (inactive) | 54.3 µM (inactive) | 87.9 µM (inactive) | > 100 µM (inactive) | – | 1.13 µM (inactive) | > 100 µM (inactive) | – | > 100 µM (inactive) | > 100 µM (inactive) | > 100 µM (inactive) | > 100 µM (inactive) | 49.9 µM (inactive)
CC(=O)NC(CCCCNC(=O)N(C)N=O)C(=O)NCc1ccccc1 (stereo not drawn) | > 100 µM (inactive) | > 100 µM (inactive) | > 100 µM (inactive) | > 100 µM (inactive) | > 100 µM | – | > 100 µM (inactive) | > 100 µM (inactive) | > 100 µM (inactive) | > 100 µM (inactive) | > 100 µM (inactive) | > 100 µM (inactive) | > 100 µM (inactive) | > 100 µM (inactive) | > 100 µM (inactive) | > 100 µM (inactive) | > 100 µM (inactive) | > 100 µM (inactive)
COC(=O)C(Cc1nc2ccc(Cl)cc2nc1O)C(=O)C(=O)Nc1cc(C)ccc1C (stereo not drawn) | > 100 µM (inactive) | > 100 µM (inactive) | 8.2 µM (inactive) | > 100 µM (inactive) | > 100 µM | > 100 µM (inactive) | > 100 µM (inactive) | > 100 µM (inactive) | > 100 µM (inactive) | > 100 µM (inactive) | > 100 µM (inactive) | > 100 µM (inactive) | > 100 µM (inactive) | > 100 µM (inactive) | > 100 µM (inactive) | > 100 µM (inactive) | > 100 µM (inactive) | –
CC(=O)NNc1nc(C)c(C(/C=C/c2ccc(/C=C/C(=N\NC(=O)c3ccncc3)c3sc(NNC(C)=O)nc3C)cc2)=N/NC(=O)c2ccncc2)s1 | > 100 µM (inactive) | > 100 µM (inactive) | > 100 µM (inactive) | > 100 µM (inactive) | > 100 µM | > 100 µM (inactive) | > 100 µM (inactive) | > 100 µM (inactive) | > 100 µM (inactive) | 41.7 µM (inactive) | > 100 µM (inactive) | > 100 µM (inactive) | > 100 µM (inactive) | > 100 µM (inactive) | > 100 µM (inactive) | – | 44.5 µM (inactive) | 54 µM (inactive)
CC(=O)Nc1[nH]c(=O)[nH]c(=O)c1N(C(C)=O)C(C)=O | > 100 µM (inactive) | > 100 µM (inactive) | > 100 µM (inactive) | > 100 µM (inactive) | > 100 µM | > 100 µM (inactive) | > 100 µM (inactive) | > 100 µM (inactive) | > 100 µM (inactive) | > 100 µM (inactive) | – | > 100 µM (inactive) | > 100 µM (inactive) | > 100 µM (inactive) | > 100 µM (inactive) | – | > 100 µM (inactive) | > 100 µM (inactive)
Clc1cc(Cl)cc(Nc2nc3ccccc3nc2-c2cccs2)c1 | 17.9 µM (inactive) | 38.5 µM (inactive) | 41.3 µM (inactive) | 99.3 µM (inactive) | > 100 µM | 25.8 µM (inactive) | 14 µM (inactive) | – | 94.6 µM (inactive) | – | 28.8 µM (inactive) | 34 µM (inactive) | 36.1 µM (inactive) | > 100 µM (inactive) | 18.5 µM (inactive) | – | 23.7 µM (inactive) | 12.4 µM (inactive)
C=CCC1=C2CCCCC2CCC1=O (stereo not drawn) | > 100 µM (inactive) | > 100 µM (inactive) | > 100 µM (inactive) | – | > 100 µM | > 100 µM (inactive) | – | > 100 µM (inactive) | > 100 µM (inactive) | > 100 µM (inactive) | > 100 µM (inactive) | > 100 µM (inactive) | > 100 µM (inactive) | > 100 µM (inactive) | > 100 µM (inactive) | > 100 µM (inactive) | > 100 µM (inactive) | –
C=C(C)C1CC=C(C)C(O)([C@@]2(O)C[C@H](C(=C)C)CC=C2C)C1 (stereo partly drawn) | 16.8 µM (inactive) | 29.7 µM (inactive) | – | 16.4 µM (inactive) | > 10 µM | 23.1 µM (inactive) | 17.3 µM (inactive) | 22.2 µM (inactive) | 13.9 µM (inactive) | 16.4 µM (inactive) | 17.3 µM (inactive) | 29.9 µM (inactive) | 19.8 µM (inactive) | 26.7 µM (inactive) | 17.6 µM (inactive) | 12.6 µM (inactive) | 19.3 µM (inactive) | 12.9 µM (inactive)

Reference: ChEMBL document CHEMBL1201862, “PubChem BioAssay data set” (2004)
